# Source: ChEMBL document CHEMBL3351435, “New pyrrole derivatives with potent tubulin polymerization inhibiting activity as anticancer agents including hedgehog-dependent cancer” (J Med Chem, 2014)
# pIC50: −log10 of the molar value. The source made the active and inactive calls. The calls are words filed in the database; no cut-off is given here.
# Legend:
# [1] = Cytotoxicity against human MESSA cells assessed as growth inhibition after 72 hrs by CellTitre-Glo assay; assay type: functional, cell-based; conditions: MES-SA
# [2] = Cytotoxicity against human MESSA/DX5 cells assessed as growth inhibition after 72 hrs by CellTitre-Glo assay; assay type: functional, cell-based; conditions: MES-SA/Dx5, 72 h
# HeLa [3] = experiment: Cell cycle arrest in human HeLa cells assessed as accumulation at G2/M phase at 20 nM by propidium iodide staining-based flow cytometry; assay type: functional
# HeLa [4] = experiment: Cell cycle arrest in human HeLa cells assessed as mitotic rounded-up phenotype at 20 nM by light microscopy; assay type: functional, cell-based
# RD [5] = experiment: Cytotoxicity against human RD cells assessed as growth inhibition after 48 hrs by MTT method; assay type: functional, cell-based
# HepG2 [6] = experiment: Cytotoxicity against human HepG2 cells assessed as growth inhibition after 48 hrs by MTT method; assay type: functional, cell-based; conditions: HepG2, 48 h
# [7] = Cell cycle arrest in human PC3 cells assessed as accumulation at G2/M phase at 500 nM after 24 hrs by propidium iodide staining-based flow cytometry; assay type: functional; conditions: PC-3
# RD [8] = experiment: Cell cycle arrest in human RD cells assessed as accumulation at G2/M phase at 500 nM after 24 hrs by propidium iodide staining-based flow cytometry; assay type: functional
# [9] = Cell cycle arrest in human PC3 cells assessed as rounded cells at 500 nM after 24 hrs by propidium iodide staining-based flow cytometry; assay type: functional; conditions: PC-3
# RD [10] = experiment: Cell cycle arrest in human RD cells assessed as rounded cells at 500 nM after 24 hrs by propidium iodide staining-based flow cytometry; assay type: functional
# [11] = Cell cycle arrest in human PC3 cells at 500 to 2000 nM incubated for 24 hrs followed by compound washout measured after 24 hrs; assay type: functional, cell-based; conditions: PC-3
# RD [12] = experiment: Cell cycle arrest in human RD cells at 1000 to 2000 nM incubated for 24 hrs followed by compound washout measured after 24 hrs; assay type: functional, cell-based
# RD [13] = experiment: Cell cycle arrest in human RD cells at 500 nM incubated for 24 hrs followed by compound washout measured after 24 hrs; assay type: functional, cell-based
# HepG2 [14] = experiment: Cell cycle arrest in human HepG2 cells at 500 to 2000 nM incubated for 24 hrs followed by compound washout measured after 24 hrs; assay type: functional, cell-based
# cells = conditions: Homo sapiens, OVCAR-8, 96 h
# Description: Cytotoxicity against human OVCAR8 cells assessed as growth inhibition after 96 hrs by Giemsa staining-based light microscopy
# Tubulin = experiment: Inhibition of tubulin (unknown origin) polymerization incubated 15 mins prior to GTP addition by spectrophotometry; assay type: protein-complex assay, Homo sapiens
# MCF7 = experiment: Cytotoxicity against human MCF7 cells after 96 hrs by Giemsa staining-based light microscopy; assay type: functional, cell-based; conditions: MCF7, 96 h
# Tubulin (Homo sapiens) [15] = target: T1, Tubulin (Homo sapiens) (UniProt P68371+Q9H4B7+P0DPH7+P68366+Q13509+Q71U36+P04350+Q3ZCM7+P07437+P68363+Q9BQE3+Q6PEY2+Q13885+Q9BVA1+Q9BUF5); experiment: Displacement of [3H]colchicine from tubulin (unknown origin) at 5 uM after 10 mins; assay type: protein-complex assay
# HeLa [16] = experiment: Cytotoxicity against human HeLa cells assessed as growth inhibition after 48 hrs by MTT method; assay type: functional, cell-based
# HT-29 = experiment: Cytotoxicity against human HT-29 cells assessed as growth inhibition after 48 hrs by MTT method; assay type: functional, cell-based; conditions: HT-29, 48 h
# A549 = experiment: Cytotoxicity against human A549 cells assessed as growth inhibition after 48 hrs by MTT method; assay type: functional, cell-based; conditions: A549, 48 h
# NCI/ADR-RES = experiment: Cytotoxicity against human NCI/ADR-RES cells assessed as growth inhibition after 96 hrs by Giemsa staining-based light microscopy; assay type: functional, cell-based
# HepG2 [17] = experiment: Cell cycle arrest in human HepG2 cells assessed as accumulation at G2/M phase at 500 nM after 24 hrs by propidium iodide staining-based flow cytometry; assay type: functional
# HepG2 [18] = experiment: Cell cycle arrest in human HepG2 cells assessed as rounded cells at 500 nM after 24 hrs by propidium iodide staining-based flow cytometry; assay type: functional
# HepG2 [19] = experiment: Induction of apoptosis in human HepG2 cells after 48 hrs by annexin-V/propidium iodide staining-based flow cytometry; assay type: functional, cell-based
# K562 [20] = experiment: Cytotoxicity against human K562 cells assessed as growth inhibition after 96 hrs by Giemsa staining-based light microscopy; assay type: functional, cell-based; conditions: K562, 96 h
# K562 [21] = experiment: Cell cycle arrest in human K562 cells assessed as mitotic index at 4 uM (reference value: 3 +/- 1%)
# K562 [22] = experiment: Cell cycle arrest in human K562 cells assessed as mitotic index at 10 times IC50 (reference value: […] +/- […]%); assay type: functional
# Tubulin (Homo sapiens) [23] = target: T1, Tubulin (Homo sapiens); experiment: Inhibition of tubulin (unknown origin) polymerization at 20 uM incubated 15 mins prior to GTP addition by spectrophotometry; assay type: protein-complex assay
# [24] = Cytotoxicity against human PC3 cells assessed as growth inhibition after 48 hrs by MTT method; assay type: functional, cell-based; conditions: PC-3, 48 h
# PC-3 = experiment: Induction of apoptosis in human PC3 cells after 48 hrs by annexin-V/propidium iodide staining-based flow cytometry; assay type: functional, cell-based
# RD [25] = experiment: Induction of apoptosis in human RD cells at 500 to 2000 nM after 48 hrs by annexin-V/propidium iodide staining-based flow cytometry; assay type: functional, cell-based
# HepG2 [26] = experiment: Induction of apoptosis in human HepG2 cells at 500 to 2000 nM after 48 hrs by annexin-V/propidium iodide staining-based flow cytometry; assay type: functional, cell-based
# [27] = Inhibition of hedgehog signaling in mouse NIH/3T3 Shh-Light II cells after 48 hrs by luciferase reporter gene assay; assay type: functional, cell-based
# [28] = Cytotoxicity against human D283 cells; assay type: functional, cell-based
smiles,measurement,setting,value
CC[C@]1(O)C[C@@H]2CN(CCc3c([nH]c4ccccc34)[C@@](C(=O)OC)(c3cc4c(cc3OC)N(C)[C@H]3[C@@](O)(C(=O)OC)[C@H](OC(C)=O)[C@]5(CC)C=CCN6CC[C@]43[C@@H]65)C2)C1 [VINBLASTINE],pIC50,[1],8.52
same,pIC50,[2],6.84
same,Activity,HeLa [3],Active
same,Activity,HeLa [4],Active
same,pIC50,RD [5],7.28
same,pIC50,HepG2 [6],7.09
same,Activity,[7],Active
same,Activity,RD [8],Active
same,Activity,[9],Active
same,Activity,RD [10],Active
same,Activity,[11],inactive
same,Activity,RD [12],inactive
same,Activity,RD [13],Active
same,Activity,HepG2 [14],inactive
same,pIC50,cells,7.82
COc1cccc(-n2ccc(C(=O)c3cc(OC)c(OC)c(OC)c3)c2)c1,pIC50,Tubulin,5.74
same,pIC50,MCF7,6.22
same,inhibition,Tubulin (Homo sapiens) [15],66%
same,pIC50,HeLa [16],6.00
same,pIC50,HT-29,6.10
same,pIC50,A549,5.52
same,pIC50,NCI/ADR-RES,7.05
same,pIC50,[1],6.58
same,pIC50,[2],6.33
same,pIC50,cells,6.60
CC(=O)O[C@H]1C(=O)[C@@]2(C)[C@H]([C@H](OC(=O)c3ccccc3)[C@]3(O)C[C@H](OC(=O)[C@H](O)[C@@H](NC(=O)c4ccccc4)c4ccccc4)C(C)=C1C3(C)C)[C@]1(OC(C)=O)CO[C@@H]1C[C@@H]2O [PACLITAXEL],pIC50,RD [5],4.85
same,Activity,[7],Active
same,Activity,RD [8],Active
same,Activity,HepG2 [17],Active
same,Activity,[9],Active
same,Activity,RD [10],Active
same,Activity,HepG2 [18],Active
same,Activity,[11],inactive
same,Activity,RD [12],inactive
same,Activity,RD [13],Active
same,Activity,HepG2 [14],inactive
same,Activity,HepG2 [19],Dose-dependent effect
COc1cc(C(=O)c2ccn(-c3cccc(N4CCCC4)c3)c2)cc(OC)c1OC,pIC50,Tubulin,5.60
same,pIC50,MCF7,7.80
same,inhibition,Tubulin (Homo sapiens) [15],23%
same,pIC50,K562 [20],6.02
same,Activity,K562 [21],39%
COc1ccc(-n2ccc(C(=O)c3cc(OC)c(OC)c(OC)c3)c2)cc1O,pIC50,Tubulin,5.89
same,pIC50,MCF7,5.35
same,inhibition,Tubulin (Homo sapiens) [15],79%
same,pIC50,HeLa [16],6.70
same,pIC50,HT-29,< 5.00
same,pIC50,A549,< 5.00
COc1ccc(-n2ccc(C(=O)c3cc(OC)c(OC)c(OC)c3)c2)cc1,pIC50,Tubulin,5.92
same,pIC50,MCF7,6.60
same,inhibition,Tubulin (Homo sapiens) [15],76%
same,pIC50,HeLa [16],6.82
same,pIC50,HT-29,6.70
same,pIC50,A549,7.10
same,pIC50,NCI/ADR-RES,7.77
same,pIC50,[1],7.20
same,pIC50,[2],7.06
same,pIC50,cells,7.22
CC[C@]1(O)C[C@H]2CN(CCc3c([nH]c4ccccc34)[C@@](C(=O)OC)(c3cc4c(cc3OC)N(C=O)[C@H]3[C@@](O)(C(=O)OC)[C@H](OC(C)=O)[C@]5(CC)C=CCN6CC[C@]43[C@@H]65)C2)C1,Activity,[7],Active
same,Activity,RD [8],Active
same,Activity,[9],Active
same,Activity,RD [10],Active
same,Activity,[11],inactive
same,Activity,RD [12],inactive
same,Activity,RD [13],Active
same,Activity,HepG2 [14],inactive
COc1cc(C(=O)c2ccn(-c3cccc(NC(C)C)c3)c2)cc(OC)c1OC,pIC50,Tubulin,5.60
same,pIC50,MCF7,7.70
same,inhibition,Tubulin (Homo sapiens) [15],53%
same,pIC50,K562 [20],6.30
same,Activity,K562 [21],69%
COc1cc(C(=O)c2ccn(-c3cccc(-n4cccc4)c3)c2)cc(OC)c1OC,pIC50,Tubulin,5.60
same,pIC50,MCF7,7.37
same,inhibition,Tubulin (Homo sapiens) [15],27%
same,pIC50,K562 [20],7.05
same,Activity,K562 [22],47%
COc1cc(C(=O)c2ccn(-c3ccc(C)cc3)c2)cc(OC)c1OC,pIC50,Tubulin,6.05
same,inhibition,Tubulin (Homo sapiens) [15],95%
same,pIC50,K562 [20],7.52
same,Activity,K562 [22],61%
COc1cc(C(=O)c2ccn(-c3cccc(NS(C)(=O)=O)c3)c2)cc(OC)c1OC,pIC50,Tubulin,6.07
same,pIC50,MCF7,7.22
same,inhibition,Tubulin (Homo sapiens) [15],84%
same,Activity,K562 [22],61%
COc1cc(C(=O)c2ccn(-c3ccc([N+](=O)[O-])cc3)c2)cc(OC)c1OC,inhibition,Tubulin (Homo sapiens) [23],inactive
COc1ccc(C(=O)c2ccn(-c3cc(OC)c(OC)c(OC)c3)c2)cc1O,inhibition,Tubulin (Homo sapiens) [23],inactive
COc1ccccc1-n1ccc(C(=O)c2cc(OC)c(OC)c(OC)c2)c1,pIC50,Tubulin,5.57
same,pIC50,MCF7,5.46
same,inhibition,Tubulin (Homo sapiens) [15],50%
same,pIC50,HeLa [16],6.05
same,pIC50,HT-29,6.00
same,pIC50,A549,6.00
same,pIC50,NCI/ADR-RES,6.70
same,pIC50,[1],6.29
same,pIC50,[2],6.19
same,pIC50,cells,6.35
O=C(c1ccccc1)c1ccn(-c2ccccc2)c1,inhibition,Tubulin (Homo sapiens) [23],inactive
COc1cc(-n2ccc(C(=O)c3ccccc3)c2)cc(OC)c1OC,inhibition,Tubulin (Homo sapiens) [23],inactive
COc1cc(C(=O)c2ccn(-c3ccc(OC(C)C)cc3)c2)cc(OC)c1OC,inhibition,Tubulin (Homo sapiens) [23],inactive
COc1ccc(-n2ccc(C(=O)c3cc(OC)c(OC)c(OC)c3)c2)cc1OC(C)C,pIC50,Tubulin,5.77
same,inhibition,Tubulin (Homo sapiens) [15],48%
same,pIC50,HeLa [16],6.10
same,pIC50,HT-29,6.10
same,pIC50,A549,6.00
COc1cc(C(=O)c2ccn(-c3cccc(NC(=N)N)c3)c2)cc(OC)c1OC.Cl,pIC50,Tubulin,5.92
same,pIC50,MCF7,7.70
same,inhibition,Tubulin (Homo sapiens) [15],87%
same,pIC50,[1],7.85
same,pIC50,[2],7.80
same,pIC50,[24],8.41
same,pIC50,RD [5],6.10
same,pIC50,HepG2 [6],7.31
same,Activity,[7],Active
same,Activity,RD [8],Active
same,Activity,HepG2 [17],Active
same,Activity,[9],Active
same,Activity,RD [10],Active
same,Activity,HepG2 [18],Active
same,Activity,RD [13],Active
same,Activity,HepG2 [14],inactive
same,Activity,PC-3,Dose-dependent effect
same,Activity,RD [25],Active
same,Activity,HepG2 [26],Active
same,pIC50,K562 [20],7.60
same,Activity,K562 [22],71%
same,inhibition,[27],Dose-dependent effect
same,pIC50,[28],6.17
CNc1cccc(-n2ccc(C(=O)c3cc(OC)c(OC)c(OC)c3)c2)c1,pIC50,Tubulin,6.00
same,inhibition,Tubulin (Homo sapiens) [15],92%
same,pIC50,K562 [20],7.52
same,Activity,K562 [22],61%
COc1cc(C(=O)c2ccn(-c3cccc(N4CCCCC4)c3)c2)cc(OC)c1OC,inhibition,Tubulin (Homo sapiens) [23],inactive
